# Reference: patent US20110172147A1, “NEUROPEPTIDE-2 RECEPTOR (Y-2R) AGONISTS” (priority 2009, published 2011)
# Assays:
# Format in all cases: cell-based
# hNPY2R [1] = biological target: T1, hNPY2R (Homo sapiens, UniProt P49146); experiment: cAMP Agonist Assay, HEK293/hNPY2R; design: expressed in transfected cells; host or cells: HEK293/hNPY2R (G418 selection)
# T1 sequence (P49146 1-381): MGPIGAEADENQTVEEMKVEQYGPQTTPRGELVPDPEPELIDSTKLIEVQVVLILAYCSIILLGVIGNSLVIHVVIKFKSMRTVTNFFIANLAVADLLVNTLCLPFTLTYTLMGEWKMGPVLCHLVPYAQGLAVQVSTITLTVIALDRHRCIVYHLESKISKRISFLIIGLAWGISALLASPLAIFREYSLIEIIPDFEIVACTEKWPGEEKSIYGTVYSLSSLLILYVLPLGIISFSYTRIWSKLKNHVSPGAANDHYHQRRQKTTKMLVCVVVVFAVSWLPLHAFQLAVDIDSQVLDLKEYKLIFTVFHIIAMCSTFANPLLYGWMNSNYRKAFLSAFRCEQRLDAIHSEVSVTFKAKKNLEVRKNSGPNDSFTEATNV
# Description: In this example, the following materials were used: 384-well plate; Tropix cAMP-Screen Kit; cAMP ELISA System (Applied Biosystems, cat. #T1505; CS 20000); Forskolin (Calbiochem cat. # 344270); cells: HEK293/hNPY2R; growth medium: Dulbecco's modified eagle medium (D-MEM, Gibco); 10% Fetal bovine serum (FBS, Gibco), heat-inactivated; 1% Penicillin/Streptomycin (Pen 10000 unit/mL: Strep […], Gibco); […] G418 (Geneticin, Gibco cat. # 11811-031); and plating medium: DMEM/F12 w/o phenol red (Gibco); 10% FBS (Gibco, cat. # 10082-147), heat-inactivated; 1% Penicillin/Streptomycin (Gibco, cat. # 15140-122); […] G418 (Geneticin, Gibco, cat. # 11811-031).
# On the first day, medium was discarded, and the monolayer cells were washed with 10 mL PBS per flask (T225). After decanting with PBS, 5 mL VERSENE (Gibco, cat #1504006) was used to dislodge the cells (5 min @37 C). The flask was gently tapped and the cell suspension was pooled. Each flask was rinsed with 10 mL plating medium and centrifuged at 1000 rpm for 5 min. The suspension was pooled and counted. The suspension was resuspended in plating medium at a density of 2.0×10^5 cells/mL for HEK293/hNPY2R. 50 microliters of cells (HEK293/hNPY2R-10,000 cells/well) were transferred into the 384-well plate using Multi-drop dispenser. The plates were incubated at 37° C. overnight. On the second day, the cells were checked for 75-85% confluence. The media and reagents were allowed to come to room temperature. Before the dilutions were prepared, the stock solution of stimulating compound in dimethyl sulphoxide (DMSO, Sigma, cat #D2650) was allowed to warm up to 32 C for 5-10 min. The dilutions were prepared in DMEM/F12 with 0.5 mM 3-Isobutyl-1-methylxanthine (IBMX, Calbiochem, cat #410957) and 0.5 mg/mL BSA. The final DMSO concentration in the stimulation medium was 1.1% with Forskolin concentration of 5 μM. The cell medium was tapped off with a gentle inversion of the cell plate on a paper towel. 50 μL of stimulation medium was placed per well (each concentration done in four replicates). The plates were incubated at room temperature for 30 min, and the cells were checked under a microscope for toxicity. After 30 minutes of treatment, the stimulation media was discarded and […] of Assay Lysis Buffer (provided in the Tropix kit) was added. The plates were incubated for 45 min @ 37° C. 20 μL of the lysate was transferred from stimulation plates into the pre-coated antibody plates (384-well) from the Tropix kit. 10 μL of AP conjugate and 20 μL of anti-cAMP antibody was added. The plates were incubated at room temperature while shaking for 1 hour. The plates were then washed 5 times with Wash Buffer, 70 μL per well for each wash. The plates were tapped to dry. 30 μL/well of CSPD/Saphire-II RTU substrate/enhancer solution was added and incubated for 45 min @ RT (shake). Signal for 1 sec/well in a Luminometer. (VICTOR-V) was measured.
# Y4R = Y4R (Homo sapiens, UniProt P50391); experiment: CaFlux Assay (FLIPR), Y4R
# Y4R, sequence (P50391 whole entry): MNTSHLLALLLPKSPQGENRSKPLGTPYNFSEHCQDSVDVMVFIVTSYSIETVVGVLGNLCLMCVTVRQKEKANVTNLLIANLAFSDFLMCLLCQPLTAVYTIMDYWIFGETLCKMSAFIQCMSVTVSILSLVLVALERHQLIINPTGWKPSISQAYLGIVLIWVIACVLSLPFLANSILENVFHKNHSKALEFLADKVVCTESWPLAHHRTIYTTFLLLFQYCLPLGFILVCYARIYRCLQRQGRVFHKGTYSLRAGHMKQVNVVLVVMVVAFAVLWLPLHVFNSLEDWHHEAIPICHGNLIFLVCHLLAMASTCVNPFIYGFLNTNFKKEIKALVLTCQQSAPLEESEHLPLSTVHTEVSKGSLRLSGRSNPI
# Y1R = biological target: T2, Y1R (Homo sapiens, UniProt P25929); experiment: CaFlux Assay (FLIPR), Y1R
# T2 sequence (P25929 1-384): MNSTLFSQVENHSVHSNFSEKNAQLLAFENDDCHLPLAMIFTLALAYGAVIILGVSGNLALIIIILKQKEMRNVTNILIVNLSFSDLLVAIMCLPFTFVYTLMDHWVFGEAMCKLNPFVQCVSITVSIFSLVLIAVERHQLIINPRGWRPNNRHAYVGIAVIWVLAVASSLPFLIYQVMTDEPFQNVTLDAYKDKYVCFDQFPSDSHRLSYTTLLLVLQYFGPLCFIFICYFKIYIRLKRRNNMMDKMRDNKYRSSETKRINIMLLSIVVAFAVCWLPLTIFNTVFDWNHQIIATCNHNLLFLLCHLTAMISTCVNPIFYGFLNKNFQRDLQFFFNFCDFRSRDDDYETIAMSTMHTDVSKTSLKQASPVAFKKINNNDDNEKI
# Y5R = biological target: T3, Y5R (Homo sapiens, UniProt Q15761); experiment: CaFlux Assay (FLIPR), Y5R
# T3 sequence (Q15761 1-445): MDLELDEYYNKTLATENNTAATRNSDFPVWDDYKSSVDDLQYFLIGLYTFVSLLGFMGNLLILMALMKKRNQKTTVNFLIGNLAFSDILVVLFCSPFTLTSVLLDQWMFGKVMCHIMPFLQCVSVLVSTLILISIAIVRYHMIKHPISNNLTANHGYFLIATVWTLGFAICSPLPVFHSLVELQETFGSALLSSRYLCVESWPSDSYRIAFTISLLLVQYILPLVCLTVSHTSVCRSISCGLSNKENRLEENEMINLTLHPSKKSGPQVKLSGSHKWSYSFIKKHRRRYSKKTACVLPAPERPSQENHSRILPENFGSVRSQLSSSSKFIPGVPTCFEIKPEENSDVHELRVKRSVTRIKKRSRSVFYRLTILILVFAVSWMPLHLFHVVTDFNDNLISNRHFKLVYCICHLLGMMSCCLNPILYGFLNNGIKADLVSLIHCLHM
# hNPY2R [2] = biological target: T1, hNPY2R; experiment: CaFlux Assay (FLIPR), Y2R; design: expressed in transfected cells; host or cells: HEK-293 stably transfected with G protein chimera Gαqi9
# Description: HEK-293 cells were stably transfected with the G protein chimera Gαqi9 and the hygromycin-B resistance gene were further transfected with the human NPY2 receptor and G418 antibiotic selection. Following selection in both hygromycin-B and G418, individual clones were assayed for their response to PYY. The transfected cells were cultured in DMEM medium supplemented with 10% fetal bovine serum, 50 μg/mL hygromycin-B, 2 mM glutamine, 100 U/mL penicillin, 100 μg/mL streptomycin and 250 μg/mL G418. Cells are harvested with trypsin-EDTA and counted using ViaCount reagent. The cell suspension volume is adjusted to 4.8×10^5 cells/mL with complete growth media. Aliquots of 25 μL are dispensed into 384 well Poly-D Lysine coated black/clear microplates (Falcon) and the microplates were placed in a 37° C. CO2 incubator overnight. Loading Buffer (Calcium-3 Assay Kit, Molecular Devices) was prepared by dissolving the contents of one vial (Express Kit) into […] Hank's Balanced Salt Solution containing 20 mM HEPES and 5 mM probenecid. Aliquots of 25 μL of diluted dye were dispensed into the cell plates and the plates are then incubated for 1 hour at 37° C. During the incubation, test compounds were prepared at 3.5× the desired concentration in HBSS (20 mM HEPES)/0.05% BSA/1% DMSO and transferred to a 384-well plate for use on FLIPR. After incubation, both the cell and compound plates were brought to the FLIPR and 20 μL of the diluted compounds were transferred to the cell plates by the FLIPR. During the assay, fluorescence readings were taken simultaneously from all 384 wells of the cell plate every 1.5 seconds. Five readings were taken to establish a stable baseline, and then 20 μL of sample was rapidly (30 μL/sec) and simultaneously added to each well of the cell plate. The fluorescence was continuously monitored before, during and after sample addition for a total elapsed time of 100 seconds. Responses (increase in peak fluorescence) in each well following addition were determined. The initial fluorescence reading from each well, prior to ligand stimulation, was used as a zero baseline value for the data from that well. The responses are expressed as % of maximal response of the positive control.
SMILES,EC50 (hNPY2R [1]),EC50 (Y4R),EC50 (Y1R),EC50 (Y5R),EC50 (hNPY2R [2]),Y5R FLIPR agonist character (partial agonist mark) (Y5R)
CCCCCCCCCCCCCCCC(=O)NCCCCCC(=O)NCCCC[C@H](NC(=O)[C@@H](NC(=O)CCOCCOCCOCCOCCOCCOCCOCCOCCOCCOCCOCCOCCOCCOCCOCCOCCOCCOCCOCCOCCOCCOCCOCCOC)[C@@H](C)CC)C(=O)N1CCN(c2ccc3ncn(CC(=O)N[C@@H](CCCNC(=N)N)C(=O)N[C@@H](Cc4c[nH]cn4)C(=O)N[C@@H](Cc4ccc(O)cc4)C(=O)N[C@@H](CC(C)C)C(=O)N[C@@H](CC(N)=O)C(=O)N[C@@H](Cc4c[nH]c5ccccc45)C(=O)N[C@H](C(=O)N[C@H](C(=O)N[C@@H](CCCNC(=N)N)C(=O)N[C@@H](CCC(N)=O)C(=O)N(C)[C@@H](CCCNC(=N)N)C(=O)N[C@@H](Cc4ccc(O)cc4)C(N)=O)[C@@H](C)O)C(C)C)c(=O)c3c2)CC1 [Example 11],0.08 nM,> 5000 nM,> 5000 nM,915 nM,0.058 nM,
CCCCCCCCCCCCCCCC(=O)NCCOCCNC(=O)CCC(=O)NCCCC[C@H](NC(=O)[C@@H](NC(=O)COCCOCCOCCOCCOCCOC)[C@@H](C)CC)C(=O)N1CCN(c2ccc3ncn(CC(=O)N[C@@H](CCCNC(=N)N)C(=O)N[C@@H](Cc4c[nH]cn4)C(=O)N[C@@H](Cc4ccc(O)cc4)C(=O)N[C@@H](CC(C)C)C(=O)N[C@@H](CC(N)=O)C(=O)N[C@@H](Cc4c[nH]c5ccccc45)C(=O)N[C@H](C(=O)N[C@H](C(=O)N[C@@H](CCCNC(=N)N)C(=O)N[C@@H](CCC(N)=O)C(=O)N(C)[C@@H](CCCNC(=N)N)C(=O)N[C@@H](Cc4ccc(O)cc4)C(N)=O)[C@@H](C)O)C(C)C)c(=O)c3c2)CC1 [Example 12],0.09 nM,> 5000 nM,> 5000 nM,527 nM,0.097 nM,
CCCCCCCCCCCCCCCC(=O)NCCOCCNC(=O)CCC(=O)NCCCC[C@H](NC(=O)[C@@H](NC(=O)CCOCCOCCOCCOCCOCCOCCOCCOCCOCCOCCOCCOC)[C@@H](C)CC)C(=O)N1CCN(c2ccc3ncn(CC(=O)N[C@@H](CCCNC(=N)N)C(=O)N[C@@H](Cc4c[nH]cn4)C(=O)N[C@@H](Cc4ccc(O)cc4)C(=O)N[C@@H](CC(C)C)C(=O)N[C@@H](CC(N)=O)C(=O)N[C@@H](Cc4c[nH]c5ccccc45)C(=O)N[C@H](C(=O)N[C@H](C(=O)N[C@@H](CCCNC(=N)N)C(=O)N[C@@H](CCC(N)=O)C(=O)N(C)[C@@H](CCCNC(=N)N)C(=O)N[C@@H](Cc4ccc(O)cc4)C(N)=O)[C@@H](C)O)C(C)C)c(=O)c3c2)CC1 [Example 13],0.15 nM,> 5000 nM,> 5000 nM,401 nM,0.055 nM,
CCCCCCCCCCCCCCCC(=O)NCCOCCNC(=O)CCC(=O)NCCCC[C@H](NC(=O)[C@@H](NC(=O)CCOCCOCCOCCOCCOCCOCCOCCOCCOCCOCCOCCOCCOCCOCCOCCOC)[C@@H](C)CC)C(=O)N1CCN(c2ccc3ncn(CC(=O)N[C@@H](CCCNC(=N)N)C(=O)N[C@@H](Cc4c[nH]cn4)C(=O)N[C@@H](Cc4ccc(O)cc4)C(=O)N[C@@H](CC(C)C)C(=O)N[C@@H](CC(N)=O)C(=O)N[C@@H](Cc4c[nH]c5ccccc45)C(=O)N[C@H](C(=O)N[C@H](C(=O)N[C@@H](CCCNC(=N)N)C(=O)N[C@@H](CCC(N)=O)C(=O)N(C)[C@@H](CCCNC(=N)N)C(=O)N[C@@H](Cc4ccc(O)cc4)C(N)=O)[C@@H](C)O)C(C)C)c(=O)c3c2)CC1 [Example 14],0.08 nM,> 5000 nM,> 5000 nM,370 nM,0.032 nM,P.A
CCCCCCCCCCCCCCCC(=O)NCCOCCNC(=O)CCC(=O)NCCCC[C@H](NC(=O)[C@@H](NC(=O)CCOCCOCCOCCOCCOCCOCCOCCOCCOCCOCCOCCOCCOCCOCCOCCOCCOCCOCCOCCOCCOCCOCCOCCOC)[C@@H](C)CC)C(=O)N1CCN(c2ccc3ncn(CC(=O)N[C@@H](CCCNC(=N)N)C(=O)N[C@@H](Cc4c[nH]cn4)C(=O)N[C@@H](Cc4ccc(O)cc4)C(=O)N[C@@H](CC(C)C)C(=O)N[C@@H](CC(N)=O)C(=O)N[C@@H](Cc4c[nH]c5ccccc45)C(=O)N[C@H](C(=O)N[C@H](C(=O)N[C@@H](CCCNC(=N)N)C(=O)N[C@@H](CCC(N)=O)C(=O)N(C)[C@@H](CCCNC(=N)N)C(=O)N[C@@H](Cc4ccc(O)cc4)C(N)=O)[C@@H](C)O)C(C)C)c(=O)c3c2)CC1 [Example 15],0.06 nM,> 5000 nM,> 5000 nM,248 nM,0.084 nM,P.A
